Results: ChEMBL document CHEMBL1201862, “PubChem BioAssay data set” (2004)
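Where inhibition never reached the appropriate level, the endpoint shown equals the highest concentration tested. Otherwise, values were interpolated linearly from a five-concentration, 48-hour dose response in 96-well plates. Abbreviation: GI50, concentration required for 50% inhibition of growth.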 Activity calls are given as the source filed them. Cut-off read from the data, not from the text of the source: active = GI50 up to about 1.1 µM and inactive = higher.

Legend:
Assay in all cases: growth of human tumour cells (NCI), 48 h
SNB-75 = tested on: SNB-75
A549 = tested on: A549
SF-539 = tested on: SF-539
COLO 205 = tested on: COLO 205
CAKI-1 = tested on: CAKI-1
HCT-116 = tested on: HCT-116
HCC 2998 = tested on: HCC 2998
M14 = tested on: M14
MCF7 = tested on: MCF7
SK-MEL-2 = tested on: SK-MEL-2
OVCAR-5 = tested on: OVCAR-5
NCI-H460 = tested on: NCI-H460
UACC-257 = tested on: UACC-257
NCI-H226 = tested on: NCI-H226
PC-3 = tested on: PC-3
MDA-MB-435 = tested on: MDA-MB-435
MDA-MB-231 = tested on: MDA-MB-231
NCI-H23 = tested on: NCI-H23
BT-549 = tested on: BT-549

Measured: GI50

Clc1ccc(C2ON=C(c3ccccc3)N2C23CC4CC(CC(C4)C2)C3)c(Cl)c1 (centres undefined)
inactive: SNB-75 > 10 µM | A549 > 10 µM | SF-539 > 10 µM | COLO 205 > 10 µM | CAKI-1 > 10 µM | HCT-116 > 10 µM | HCC 2998 > 10 µM | M14 > 10 µM | MCF7 > 10 µM | SK-MEL-2 > 10 µM | OVCAR-5 > 10 µM | NCI-H460 > 10 µM | UACC-257 > 10 µM | NCI-H226 > 10 µM | PC-3 > 10 µM | MDA-MB-435 > 10 µM | MDA-MB-231 > 10 µM | NCI-H23 > 10 µM

COc1ccc(/C=N/NC(=S)Nc2cc(C)ccc2OC)cc1
inactive: SNB-75 > 100 µM | A549 45.1 µM | SF-539 24.5 µM | COLO 205 17 µM | CAKI-1 29.7 µM | HCT-116 29.2 µM | M14 23.1 µM | MCF7 22.9 µM | SK-MEL-2 19.8 µM | OVCAR-5 16.9 µM | BT-549 26.6 µM | PC-3 34.4 µM | MDA-MB-435 25.6 µM | NCI-H23 29.8 µM

CC1=CC[C@@]2(CO)[C@@H]([C@@H]1C)[C@H]1CC[C@@H]3[C@@]4(C)CC[C@H](O)C(C)(C)[C@@H]4CC[C@@]3(C)[C@]1(C)C[C@@H]2O
inactive: A549 15.9 µM | COLO 205 17.3 µM | CAKI-1 19.8 µM | HCT-116 21.5 µM | M14 28.2 µM | MCF7 8.43 µM | OVCAR-5 > 100 µM | NCI-H460 16.3 µM | BT-549 20.3 µM | UACC-257 27.2 µM | NCI-H226 27.2 µM | PC-3 13.3 µM | MDA-MB-435 40.2 µM | NCI-H23 17.5 µM

NN/C(=N\S(=O)(=O)c1cc(Cl)c(Oc2ccc([N+](=O)[O-])cc2Cl)c(Cl)c1)Nc1ccc(Cl)cc1
inactive: SNB-75 23.7 µM | A549 17.9 µM | SF-539 14.7 µM | COLO 205 15.6 µM | CAKI-1 17.9 µM | HCT-116 15.7 µM | M14 17.4 µM | MCF7 22.6 µM | SK-MEL-2 18 µM | OVCAR-5 24.4 µM | NCI-H460 15.8 µM | BT-549 18.4 µM | UACC-257 17.6 µM | NCI-H226 15.9 µM | PC-3 26.5 µM | MDA-MB-231 18.4 µM | NCI-H23 16.5 µM

O=C1/C(=C/C=C/c2ccccc2)N=C(c2ccccc2)N1c1ccc(S(=O)(=O)Nc2nccs2)cc1
inactive: SNB-75 45.1 µM | A549 31.8 µM | SF-539 20.8 µM | COLO 205 18.8 µM | CAKI-1 65.9 µM | HCT-116 29.6 µM | M14 26.4 µM | MCF7 18.7 µM | SK-MEL-2 25.1 µM | OVCAR-5 31.6 µM | NCI-H460 25.8 µM | BT-549 19.8 µM | UACC-257 34.6 µM | NCI-H226 20 µM | PC-3 36.4 µM | MDA-MB-435 28.2 µM | NCI-H23 21.3 µM

O=C(O)c1cccc(Nc2c(C(=O)O)cccc2[N+](=O)[O-])c1
inactive: SNB-75 > 100 µM | A549 > 100 µM | SF-539 > 100 µM | COLO 205 > 100 µM | CAKI-1 > 100 µM | HCT-116 > 100 µM | HCC 2998 > 100 µM | M14 > 100 µM | MCF7 > 100 µM | SK-MEL-2 > 100 µM | OVCAR-5 > 100 µM | NCI-H460 > 100 µM | BT-549 > 100 µM | UACC-257 > 100 µM | PC-3 > 100 µM | MDA-MB-231 > 100 µM | NCI-H23 > 100 µM

N#Cc1c(Cl)cccc1Oc1ccc(S(=O)(=O)/N=C(\NN)Nc2ccc(Cl)cc2)cc1
inactive: SNB-75 21.6 µM | A549 31.9 µM | SF-539 17.7 µM | COLO 205 15.6 µM | CAKI-1 33.3 µM | HCT-116 17.7 µM | M14 22.9 µM | MCF7 35.7 µM | SK-MEL-2 21.6 µM | OVCAR-5 28.5 µM | NCI-H460 19.2 µM | BT-549 25.1 µM | UACC-257 29.9 µM | NCI-H226 17.4 µM | PC-3 23.6 µM | MDA-MB-231 27.4 µM | NCI-H23 24.3 µM

COc1ccc(C)cc1Nc1nnc(-c2ccccc2N)s1
inactive: SNB-75 55 µM | A549 47.4 µM | SF-539 82.8 µM | COLO 205 36.8 µM | CAKI-1 28.4 µM | HCT-116 37.3 µM | HCC 2998 30 µM | M14 40.2 µM | MCF7 37.8 µM | SK-MEL-2 19.5 µM | OVCAR-5 89.9 µM | NCI-H460 31 µM | BT-549 62.7 µM | UACC-257 37.3 µM | NCI-H226 43 µM | PC-3 35 µM | MDA-MB-435 28.6 µM | NCI-H23 34.3 µM

COc1ccccc1/C=C1\S/C(=N/Nc2nc(C)c(C(C)=O)s2)NC1=O
inactive: SNB-75 24.5 µM | A549 44.8 µM | SF-539 44.1 µM | COLO 205 22.9 µM | CAKI-1 57.3 µM | HCT-116 43.3 µM | HCC 2998 94.6 µM | M14 74 µM | MCF7 25.6 µM | SK-MEL-2 64.1 µM | OVCAR-5 83 µM | NCI-H460 55.7 µM | UACC-257 49.8 µM | NCI-H226 5.3 µM | PC-3 43.6 µM | MDA-MB-435 32.6 µM | MDA-MB-231 22.8 µM | NCI-H23 42.1 µM

COc1cc(C(=O)N(Cc2cccnc2)C(=S)N(Cc2cccnc2)C(=O)c2cc(OC)c(OC)c(OC)c2)cc(OC)c1OC
inactive: SNB-75 21.4 µM | A549 > 100 µM | SF-539 > 100 µM | COLO 205 35 µM | CAKI-1 30.4 µM | HCT-116 31 µM | HCC 2998 24.3 µM | M14 94.8 µM | MCF7 19.9 µM | OVCAR-5 > 100 µM | NCI-H460 94 µM | BT-549 28.5 µM | UACC-257 70 µM | NCI-H226 > 100 µM | MDA-MB-435 31 µM | NCI-H23 49.2 µM

CC(=O)N1CN2C(=O)CCC2c2ccccc21 (centres undefined)
inactive: SNB-75 > 100 µM | A549 > 100 µM | SF-539 > 100 µM | COLO 205 > 100 µM | CAKI-1 > 100 µM | HCT-116 > 100 µM | HCC 2998 > 100 µM | M14 > 100 µM | MCF7 > 100 µM | SK-MEL-2 > 100 µM | OVCAR-5 > 100 µM | NCI-H460 > 100 µM | UACC-257 > 100 µM | NCI-H226 > 100 µM | PC-3 > 100 µM | MDA-MB-435 > 100 µM | MDA-MB-231 > 100 µM | NCI-H23 > 100 µM

CCOP(=O)(O)CC1OC(CO)C(O)C1O (centres undefined)
inactive: SNB-75 > 100 µM | A549 > 100 µM | SF-539 > 100 µM | COLO 205 > 100 µM | HCT-116 > 100 µM | M14 > 100 µM | SK-MEL-2 > 100 µM | OVCAR-5 > 100 µM | NCI-H460 > 100 µM | BT-549 > 100 µM | UACC-257 > 100 µM | NCI-H226 > 100 µM | PC-3 > 100 µM | MDA-MB-231 > 100 µM | NCI-H23 > 100 µM
